# Assay results as given in patent US20230085307A1, “PYRIDAZINONE COMPOUND AND HERBICIDE” (NISSAN CHEMICAL CORPORATION, priority 2019, published 2023).
# Legend:
# southern crabgrass [1] = test: Test Example 5: herbicidal effect by foliage application, plastic box (Table 20, symbol F); type: in vivo, southern crabgrass (Digitaria ciliaris); conditions: foliage application, three weeks after application
# In short: (§1)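 Plants sown in sterilized diluvial soil and grown 14 days in a greenhouse at 25° C to 30° C, then sprayed on the foliage with the compound's emulsion diluted in water to a predetermined herbicide amount. Injury to weeds and crops scored three weeks after application on a visual rating scale.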
# rice flat sedge = test: Test Example 3: herbicidal effect by foliage application, Wagner pot (Table 18, symbol E); type: in vivo, rice flat sedge (Cyperus iria); conditions: 320 g/ha
# In short: (§2)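 Plants were sown in alluvial soil held under 0.1–0.5 cm standing water and grown 14 days in a greenhouse at 25–30 °C. An emulsifiable formulation, water-diluted to the set dose, was then sprayed onto the foliage, and effects were scored three weeks later using previously defined criteria.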
# Italian ryegrass [2] = test: Test Example 5: herbicidal effect by foliage application, plastic box (Table 20, symbol K); type: in vivo, Italian ryegrass (Lolium multiflorum); conditions: foliage application, three weeks after application
# In short: as §1
# chickweed [3] = test: Test Example 5: herbicidal effect by foliage application, plastic box (Table 20, symbol P); type: in vivo, common chickweed (Stellaria media); conditions: foliage application, three weeks after application
# In short: as §1
# velvetleaf [4] = test: Test Example 5: herbicidal effect by foliage application, plastic box (Table 20, symbol M); type: in vivo, velvetleaf (Abutilon theophrasti); conditions: foliage application, three weeks after application
# In short: as §1
# false cleavers = test: Test Example 5: herbicidal effect by foliage application, plastic box (Table 20, symbol Q); type: in vivo, false cleavers (Galium spurium); conditions: foliage application, three weeks after application
# In short: as §1
# lambsquarters [5] = test: Test Example 5: herbicidal effect by foliage application, plastic box (Table 20, symbol O); type: in vivo, lambsquarters (Chenopodium album); conditions: foliage application, three weeks after application
# In short: as §1
# persian speedwell [6] = test: Test Example 5: herbicidal effect by foliage application, plastic box (Table 20, symbol R); type: in vivo, Persian speedwell (Veronica persica); conditions: foliage application, three weeks after application
# In short: as §1
# redroot pigweed [7] = test: Test Example 5: herbicidal effect by foliage application, plastic box (Table 20, symbol N); type: in vivo, redroot pigweed (Amaranthus retroflexus); conditions: foliage application, three weeks after application
# In short: as §1
# green foxtail [8] = test: Test Example 5: herbicidal effect by foliage application, plastic box (Table 20, symbol G); type: in vivo, green foxtail (Setaria viridis); conditions: foliage application, three weeks after application
# In short: as §1
# Japanese bulrush = test: Test Example 1: herbicidal activity, application before weed generation under submerged conditions (Table 16, symbol B); type: in vivo, Japanese bulrush (Schoenoplectus juncoides); conditions: 320 g/ha applied herbicide
# In short: (§3)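 Alluvial soil was flooded to 4 cm depth, weed seeds were sown mixed and 2.5-leaf rice seedlings were transplanted. On sowing day, the compound's emulsion, diluted in water to a set dose, was applied to the water surface. Plants grew at 25–30 °C and were scored 0–5 after three weeks.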
# blackgrass [9] = test: Test Example 5: herbicidal effect by foliage application, plastic box (Table 20, symbol J); type: in vivo, blackgrass (Alopecurus myosuroides); conditions: foliage application, three weeks after application
# In short: as §1
# barnyard grass [10] = test: Test Example 3: herbicidal effect by foliage application, Wagner pot (Table 18, symbol H); type: in vivo, barnyard grass (Echinochloa crus-galli); conditions: 320 g/ha
# In short: as §2
# late watergrass = test: Test Example 1: herbicidal activity, application before weed generation under submerged conditions (Table 16, symbol A); type: in vivo, late watergrass (Echinochloa oryzicola); conditions: 320 g/ha applied herbicide
# In short: as §3
# windgrass [11] = test: Test Example 5: herbicidal effect by foliage application, plastic box (Table 20, symbol L); type: in vivo, windgrass (Apera spica-venti); conditions: foliage application, three weeks after application
# In short: as §1
# barnyard grass [12] = test: Test Example 5: herbicidal effect by foliage application, plastic box (Table 20, symbol H); type: in vivo, barnyard grass (Echinochloa crus-galli); conditions: foliage application, three weeks after application
# In short: as §1
# wild oat [13] = test: Test Example 5: herbicidal effect by foliage application, plastic box (Table 20, symbol I); type: in vivo, wild oat (Avena fatua); conditions: foliage application, three weeks after application
# In short: as §1
# Chinese sprangletop = test: Test Example 3: herbicidal effect by foliage application, Wagner pot (Table 18, symbol D); type: in vivo, chinese sprangletop (Leptochloa chinensis); conditions: 320 g/ha
# In short: as §2
# redroot pigweed [14] = test: Test Example 4: herbicidal effect by soil treatment (Table 19, symbol N); type: in vivo, redroot pigweed (Amaranthus retroflexus); conditions: AAH 320 g/ha
# In short: (§4)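 Three weeks of greenhouse growth at 25° C. to 30° C. followed a uniform surface spray of water-diluted emulsion at a predetermined herbicide amount. Seeds had been sown beforehand under about 1.5 cm of sterilized diluvial soil. Grading followed criteria set out in an earlier test.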
# green foxtail [15] = test: Test Example 4: herbicidal effect by soil treatment (Table 19, symbol G); type: in vivo, green foxtail (Setaria viridis); conditions: AAH 320 g/ha
# In short: as §4
# blackgrass [16] = test: Test Example 4: herbicidal effect by soil treatment (Table 19, symbol J); type: in vivo, blackgrass (Alopecurus myosuroides); conditions: AAH 320 g/ha
# In short: as §4
# barnyard grass [17] = test: Test Example 4: herbicidal effect by soil treatment (Table 19, symbol H); type: in vivo, barnyard grass (Echinochloa crus-galli); conditions: AAH 320 g/ha
# In short: as §4
# velvetleaf [18] = test: Test Example 4: herbicidal effect by soil treatment (Table 19, symbol M); type: in vivo, velvetleaf (Abutilon theophrasti); conditions: AAH 320 g/ha
# In short: as §4
# southern crabgrass [19] = test: Test Example 4: herbicidal effect by soil treatment (Table 19, symbol F); type: in vivo, southern crabgrass (Digitaria ciliaris); conditions: AAH 320 g/ha
# In short: as §4
# lambsquarters [20] = test: Test Example 4: herbicidal effect by soil treatment (Table 19, symbol O); type: in vivo, lambsquarters (Chenopodium album); conditions: AAH 320 g/ha
# In short: as §4
# windgrass [21] = test: Test Example 4: herbicidal effect by soil treatment (Table 19, symbol L); type: in vivo, windgrass (Apera spica-venti); conditions: AAH 320 g/ha
# In short: as §4
# chickweed [22] = test: Test Example 4: herbicidal effect by soil treatment (Table 19, symbol P); type: in vivo, common chickweed (Stellaria media); conditions: AAH 320 g/ha
# In short: as §4
# persian speedwell [23] = test: Test Example 4: herbicidal effect by soil treatment (Table 19, symbol R); type: in vivo, Persian speedwell (Veronica persica); conditions: AAH 320 g/ha
# In short: as §4
# Italian ryegrass [24] = test: Test Example 4: herbicidal effect by soil treatment (Table 19, symbol K); type: in vivo, Italian ryegrass (Lolium multiflorum); conditions: AAH 320 g/ha
# In short: as §4
# wild oat [25] = test: Test Example 4: herbicidal effect by soil treatment (Table 19, symbol I); type: in vivo, wild oat (Avena fatua); conditions: AAH 320 g/ha
# In short: as §4
compound,measurement,setting,value
CCCCOc1ccccc1-c1sc2ccccc2c1-c1c(O)c(C)nn(C)c1=O [1-022],"herbicidal effect grade, F: southern crabgrass",southern crabgrass [1]; 320 g/ha,0 (Herbicidal rate of 5% or less (almost no effect))
same,"herbicidal effect on E (rice flat sedge), rating 0-5",rice flat sedge,4 (Herbicidal rate of 70% or more and less than 90%)
same,"herbicidal effect grade, K: Italian ryegrass",Italian ryegrass [2]; 320 g/ha,0 (Herbicidal rate of 5% or less (almost no effect))
same,"herbicidal effect grade, P: chickweed",chickweed [3]; 320 g/ha,5 (Herbicidal rate of 90% or more (almost completely withered))
same,"herbicidal effect grade, M: velvetleaf",velvetleaf [4]; 320 g/ha,0 (Herbicidal rate of 5% or less (almost no effect))
same,"herbicidal effect grade, Q: false cleavers",false cleavers; 320 g/ha,4 (Herbicidal rate of 70% or more and less than 90%)
same,"herbicidal effect grade, O: lambsquarters",lambsquarters [5]; 320 g/ha,0 (Herbicidal rate of 5% or less (almost no effect))
same,"herbicidal effect grade, R: persian speedwell",persian speedwell [6]; 320 g/ha,5 (Herbicidal rate of 90% or more (almost completely withered))
same,"herbicidal effect grade, N: redroot pigweed",redroot pigweed [7]; 320 g/ha,3 (Herbicidal rate of 40% or more and less than 70%)
same,"herbicidal effect grade, G: green foxtail",green foxtail [8]; 320 g/ha,0 (Herbicidal rate of 5% or less (almost no effect))
same,Herbicidal effect on B: Japanese bulrush (grade 0-5),Japanese bulrush,3 (Herbicidal rate of 40% or more and less than 70%)
same,"herbicidal effect grade, J: blackgrass",blackgrass [9]; 320 g/ha,0 (Herbicidal rate of 5% or less (almost no effect))
same,"herbicidal effect on H (barnyard grass), rating 0-5",barnyard grass [10],3 (Herbicidal rate of 40% or more and less than 70%)
same,Herbicidal effect on A: late watergrass (grade 0-5),late watergrass,2 (Herbicidal rate of 20% or more and less than 40%)
same,"herbicidal effect grade, L: windgrass",windgrass [11]; 320 g/ha,0 (Herbicidal rate of 5% or less (almost no effect))
same,"herbicidal effect grade, H: barnyard grass",barnyard grass [12]; 320 g/ha,3 (Herbicidal rate of 40% or more and less than 70%)
same,"herbicidal effect grade, I: wild oat",wild oat [13]; 320 g/ha,0 (Herbicidal rate of 5% or less (almost no effect))
same,"herbicidal effect on D (Chinese sprangletop), rating 0-5",Chinese sprangletop,0 (Herbicidal rate of 5% or less (almost no effect))
COc1nn(C)c(=O)c(-c2c(-c3ccc(F)c(F)c3)sc3ccccc23)c1O [1-172],"F: southern crabgrass, herbicidal effect",southern crabgrass [1]; AAH 320 g/ha,0 (Herbicidal rate of 5% or less (almost no effect))
same,"N: redroot pigweed, herbicidal effect rating",redroot pigweed [14],5 (Herbicidal rate of 90% or more (almost completely withered))
same,"G: green foxtail, herbicidal effect rating",green foxtail [15],5 (Herbicidal rate of 90% or more (almost completely withered))
same,"herbicidal effect on E (rice flat sedge), rating 0-5",rice flat sedge,5 (Herbicidal rate of 90% or more (almost completely withered))
same,"K: Italian ryegrass, herbicidal effect",Italian ryegrass [2]; AAH 320 g/ha,3 (Herbicidal rate of 40% or more and less than 70%)
same,"J: blackgrass, herbicidal effect rating",blackgrass [16],0 (Herbicidal rate of 5% or less (almost no effect))
same,"P: chickweed, herbicidal effect",chickweed [3]; AAH 320 g/ha,5 (Herbicidal rate of 90% or more (almost completely withered))
same,"M: velvetleaf, herbicidal effect",velvetleaf [4]; AAH 320 g/ha,3 (Herbicidal rate of 40% or more and less than 70%)
same,"H: barnyard grass, herbicidal effect rating",barnyard grass [17],0 (Herbicidal rate of 5% or less (almost no effect))
same,"M: velvetleaf, herbicidal effect rating",velvetleaf [18],1 (Herbicidal rate of 5% or more and less than 20%)
same,"Q: false cleavers, herbicidal effect",false cleavers; AAH 320 g/ha,5 (Herbicidal rate of 90% or more (almost completely withered))
same,"O: lambsquarters, herbicidal effect",lambsquarters [5]; AAH 320 g/ha,5 (Herbicidal rate of 90% or more (almost completely withered))
same,"F: southern crabgrass, herbicidal effect rating",southern crabgrass [19],2 (Herbicidal rate of 20% or more and less than 40%)
same,"R: persian speedwell, herbicidal effect",persian speedwell [6]; AAH 320 g/ha,5 (Herbicidal rate of 90% or more (almost completely withered))
same,"O: lambsquarters, herbicidal effect rating",lambsquarters [20],5 (Herbicidal rate of 90% or more (almost completely withered))
same,"L: windgrass, herbicidal effect rating",windgrass [21],0 (Herbicidal rate of 5% or less (almost no effect))
same,"N: redroot pigweed, herbicidal effect",redroot pigweed [7]; AAH 320 g/ha,5 (Herbicidal rate of 90% or more (almost completely withered))
same,"P: chickweed, herbicidal effect rating",chickweed [22],5 (Herbicidal rate of 90% or more (almost completely withered))
same,"G: green foxtail, herbicidal effect",green foxtail [8]; AAH 320 g/ha,4 (Herbicidal rate of 70% or more and less than 90%)
same,"R: persian speedwell, herbicidal effect rating",persian speedwell [23],5 (Herbicidal rate of 90% or more (almost completely withered))
same,"J: blackgrass, herbicidal effect",blackgrass [9]; AAH 320 g/ha,0 (Herbicidal rate of 5% or less (almost no effect))
same,"herbicidal effect on H (barnyard grass), rating 0-5",barnyard grass [10],0 (Herbicidal rate of 5% or less (almost no effect))
same,"L: windgrass, herbicidal effect",windgrass [11]; AAH 320 g/ha,0 (Herbicidal rate of 5% or less (almost no effect))
same,"H: barnyard grass, herbicidal effect",barnyard grass [12]; AAH 320 g/ha,0 (Herbicidal rate of 5% or less (almost no effect))
same,"K: Italian ryegrass, herbicidal effect rating",Italian ryegrass [24],1 (Herbicidal rate of 5% or more and less than 20%)
same,"I: wild oat, herbicidal effect",wild oat [13]; AAH 320 g/ha,0 (Herbicidal rate of 5% or less (almost no effect))
same,"herbicidal effect on D (Chinese sprangletop), rating 0-5",Chinese sprangletop,0 (Herbicidal rate of 5% or less (almost no effect))
same,"I: wild oat, herbicidal effect rating",wild oat [25],0 (Herbicidal rate of 5% or less (almost no effect))
